Patent US6825230B2, “Spiro and dispiro 1,2,4-trixolane antimalarials” (Medicines for Malaria Venture MMV, priority 2002, dated 2004)

Columns and labels:
[1] = tested on: chloroquine-resistant K1 strain of P. falciparum; assay: In vitro antimalarial semiautomated microdilution assay ([3H]-hypoxanthine incorporation), K1 strain; format: cell-based, Plasmodium falciparum; conditions: Plasmodium falciparum, K1, 72 h, read-out: IC50 (ng/ml) K1, chloroquine-resistant K1 strain, 72 h incubation
Outline: (§1)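 IC50 comes from Logit regression of [3H]-hypoxanthine incorporation data. Intraerythrocytic P. falciparum taken from asynchronous stock cultures is exposed to OZ compounds in a semiautomated microdilution format.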

[2] = tested on: chloroquine-sensitive NF54 strain of P. falciparum; assay: In vitro antimalarial semiautomated microdilution assay ([3H]-hypoxanthine incorporation), NF54 strain; format: cell-based, Plasmodium falciparum; conditions: Plasmodium falciparum, NF54, 72 h, read-out: IC50 (ng/ml) NF54, chloroquine-sensitive NF54 strain, 72 h incubation
Outline: as §1

[3] = tested on: ANKA strain of P. berghei; assay: Single dose STI in vivo screen in infected mice; parameters: species or system Plasmodium berghei
P. berghei ANKA strain = assay: Onset of action and recrudescence experiment, single 100 mg/kg po; format: in vivo, Plasmodium berghei; conditions: single 100 mg/kg po (SSV) on day +3 post-infection; recrudescence = >5% parasitemia; followed up to 60 days; groups of five
Procedure: The onset of drug action was determined after a single fixed dose of 100 mg/kg (SSV vehicle) po to groups of five animals on day +3 post-infection (day 0).
Moro NMRI male mice (Fu Albino specific pathogen free) weighing 18±2 g were infected intravenously (i.v.) with 2×10^7 P. berghei ANKA strain-infected erythrocytes from donor mice on day 0 of the experiment. From donor mice with circa 30% parasitemia, heparinized blood was taken and diluted in physiological saline to 10^8 parasitized erythrocytes per ml. An aliquot (0.2 ml) of this suspension was injected i.v. into experimental and control groups of mice. […] Throughout the experiments, mice were kept in groups of three or five animals in Makrolon type II cages in an air-conditioned animal room at 22 to 23° C.

Schistosoma japonicum = assay: Effect in mice infected with Schistosoma japonicum; format: in vivo; conditions: for MFWB (mean female worm burden) x ± SD: control 11.6 ± 2.4; for MTWB (mean total worm burden) x ± SD: control 26.6 ± 4.2
[4] = tested on: Schistosoma mansoni 21-day-old schistosomules; assay: Effect on 21-day-old schistosomules in infected mice; format: in vivo; conditions: single 200 mg/kg per os, 21-day-old schistosomules
Procedure: Mice were infected with 100 Schistosoma mansoni cercariae on day 21 post-treatment. Each group was treated per os with trioxolanes at a single dose of 200 mg/kg. […] All groups were killed 4 weeks after treatment and the liver and intestine were removed and separated. The liver and intestine were compressed and alive male and female worms could be seen and counted. The effect of the compounds was evaluated by mean total and female worm burden.

[5] = tested on: Schistosoma mansoni adult worms (49-day-old); assay: Effect on adult schistosomes (49-day-old) in infected mice; format: in vivo
Procedure: Mice were infected with 100 Schistosoma mansoni cercariae on day 49 post-treatment. Each group was treated per os with OZ compounds at single doses of 200, 400, and 600 mg/kg. Untreated mice served as the control. All groups were killed 4 weeks after treatment and the liver and intestine were removed and separated. The liver and intestine were compressed and alive male and female worms could be seen and counted.

S. haematobium = assay: In vivo activity against S. haematobium; parameters: species or system Schistosoma haematobium; conditions: 1 x 200 mg/kg p.o.
[6] = tested on: ANKA strain of Plasmodium berghei; assay: Single dose ED50/ED90/ED99 determination in infected mice; format: in vivo; conditions: single dose po in SSV on day 1 post-infection, parasitemia day 3, nonlinear fitting
Outline: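 Moro SPF or NMRI mice (three per group) infected with P. berghei ANKA were dosed once on day 1 post-infection in SSV (0.5% CMC, 0.5% benzyl alcohol, 0.4% Tween 80, 0.9% NaCl). Parasitemia reduction was scored on day 3; ED values (mg/kg) came from nonlinear fitting.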

[7] = 1 x 200 mg/kg p.o. (table footnote)
[8] = 1 x 400 mg/kg p.o. (table footnote)
[9] = age of worm 7 days, 200 mg/kg x 1
[10] = age of worm 35 days, 200 mg/kg x 1
[11] = age of worm 35 days, 400 mg/kg x 1

Cc1ccc(S(=O)(=O)O)cc1.NC[C@H]1CC[C@]2(CC1)OOC1(O2)C2CC3CC(C2)CC1C3 (some centres unmarked) [OZ207]
IC50 [1]: 0.33 ng/mL
IC50 [2]: 0.57 ng/mL
Survival (days) 10 mg/kg po ([3]; single 10 mg/kg po in 3% ethanol and 7% Tween 80, untreated 6-7 days): 9.3 days
Activity (%) 10 mg/kg po ([3]; single 10 mg/kg po in 3% ethanol and 7% Tween 80 on day 1 post-infection, percent reduction in parasitemia on day 3): 99.96%
Survival (days) 10 mg/kg SSV po ([3]; single 10 mg/kg po in SSV, untreated 6-7 days): 12.0 days
Activity (%) 10 mg/kg SSV po ([3]; single 10 mg/kg po in standard suspending vehicle (SSV) on day 1 post-infection, percent reduction in parasitemia on day 3): 99.98%
Survival (days) 10 mg/kg sc ([3]; single 10 mg/kg sc in 3% ethanol and 7% Tween 80, untreated 6-7 days): 11.3 days
Activity (%) 10 mg/kg sc ([3]; single 10 mg/kg sc in 3% ethanol and 7% Tween 80 on day 1 post-infection, percent reduction in parasitemia on day 3): 99.98%
Time of Recrudescence (days) (P. berghei ANKA strain): no recrudescence observed
S. Japonicum FWR (Schistosoma japonicum; [7]): 95%
S. Japonicum TWR (Schistosoma japonicum; [7]): 66%
S. Japonicum FWR (Schistosoma japonicum; [8]): 94%
S. Japonicum TWR (Schistosoma japonicum; [8]): 84%
Mice without female worm (Schistosoma japonicum; [9]): 0/8
MFWB (mean female worm burden) x ± SD (Schistosoma japonicum; [9]): 2.1 ± 1.0
MTWB (mean total worm burden) x ± SD (Schistosoma japonicum; [9]): 5.4 ± 2.4
Mice without female worm (Schistosoma japonicum; [10]): 4/7
MFWB (mean female worm burden) x ± SD (Schistosoma japonicum; [10]): 0.6 ± 0.7
MTWB (mean total worm burden) x ± SD (Schistosoma japonicum; [10]): 9.1 ± 3.9
Mice without female worm (Schistosoma japonicum; [11]): 4/6
MFWB (mean female worm burden) x ± SD (Schistosoma japonicum; [11]): 0.7 ± 1.2
MTWB (mean total worm burden) x ± SD (Schistosoma japonicum; [11]): 4.3 ± 1.2
% reduction of schistosomule growth at day 21 after per os application of 200 mg/kg, FWR (%) ([4]; female worm reduction rate): 100%
% reduction of schistosomule growth at day 21 after per os application of 200 mg/kg, TWR (%) ([4]; total worm reduction rate): 93%
% reduction of adult worms growth at day 49 after per os application of 200 mg/kg, TWR (%) ([5]; single 200 mg/kg per os, 49-day-old adults, total worm reduction rate): 32%
Adult worms day 49, per os 200 mg/kg, DEAD WORM (%) ([5]; single 200 mg/kg per os, percentage of dead worm in the liver): 17%
% reduction of adult worms growth at day 49 after per os application of 400 mg/kg, TWR (%) ([5]; single 400 mg/kg per os, 49-day-old adults, total worm reduction rate): 35%
Adult worms day 49, per os 400 mg/kg, DEAD WORM (%) ([5]; single 400 mg/kg per os, percentage of dead worm in the liver): 21%
% reduction of adult worms growth at day 49 after per os application of 600 mg/kg, TWR (%) ([5]; single 600 mg/kg per os, 49-day-old adults, total worm reduction rate): 11/ %
Adult worms day 49, per os 600 mg/kg, DEAD WORM (%) ([5]; single 600 mg/kg per os, percentage of dead worm in the liver): 24++ %
S. haematobium DEAD WORM (S. haematobium): 68%
S. haematobium TWR (S. haematobium): 73%
ED50 ([6]; Plasmodium berghei, po): 0.37 mg/kg
ED90 [6]: 1.2 mg/kg
ED99 [6]: 3.0 mg/kg
